Data from patent US12497370B2, “Isoxazoline derivatives” (Elanco Tiergesundheit AG, priority 2019, dated 2025).

System: fleas (Ctenocephalides felis)
Test: In vitro evaluation of ingestion activity against fleas
Conditions: flea ingestion test, compound in organic bovine blood (0.5% DMSO), adult fleas, percent mortality between 2 h and 48 h post infestation, read-out: EC50 (the source's name)
Experimental: In Vitro Evaluation of Ingestion Activity Against Fleas (Ctenocephalides felis)
For flea ingestion tests, serial dilutions of the compound stock were performed using DMSO to achieve the desired range for EC50 and EC90 determination. An aliquot of each compound dilution was added to organic bovine blood with a final DMSO concentration of 0.5% and placed in an artificial feeding container. Fipronil is included to serve as a positive control. Ten newly emerged unfed adult fleas, 0-7 days old Ctenocephalides felis, from a laboratory colony, were aspirated into each vial or cage. The cages for flea ingestion assays were held in a temperature-controlled artificial feeding apparatus to allow continual access to organic bovine blood containing the desired concentration of compound. Fresh aliquots of compound-spiked bovine blood were provided daily for the duration of the study. Fleas were evaluated for percent mortality at various time points between 2 h and 48 h post infestation. Fleas showing normal movement and/or jumping ability were considered viable and those showing no movement after tapping the vials were scored as dead.

Row | SMILES | LC50
1 | Cc1cc(C2=NOC(c3cc(C(F)(F)F)cc(Cl)c3F)(C(F)(F)F)C2)ccc1C(=O)NC1(C)CSC1 (single isomer, unassigned) [Example 3.93, 2-methyl-N-(3-methylthietan-3-yl)-4-[(5R or S)-5-[3-chloro-2-fluoro-5-(trifluoromethyl)phenyl]-5-(trifluoromethyl)-4H-isoxazol-3-yl]benzamide] | < 1 µg/mL
2 | Cc1cc(C2=NOC(c3cc(C(F)(F)F)cc(Cl)c3F)(C(F)(F)F)C2)ccc1C(=O)N[C@@H]1CN(CC(F)(F)F)C1=O (single isomer, unassigned) [Example 3.73, 4-[(5R or S)-5-[3-chloro-2-fluoro-5-(trifluoromethyl)phenyl]-5-(trifluoromethyl)-4H-isoxazol-3-yl]-2-methyl-N-[(3R)-2-oxo-1-(2,2,2-trifluoroethyl)azetidin-3-yl]benzamide] | < 1 µg/mL
3 | Cc1cc(C2=NO[C@@](c3cc(C(F)(F)F)cc(Cl)c3F)(C(F)(F)F)C2)ccc1C(=O)N[C@@H]1CC[C@H](C#N)C1 (single isomer, unassigned) [Example 3.90, 4-[(5S or R)-5-[3-chloro-2-fluoro-5-(trifluoromethyl)phenyl]-5-(trifluoromethyl)-4H-isoxazol-3-yl]-N-[cis-3-cyanocyclopentyl]-2-methyl-benzamide] | < 1 µg/mL
4 | Cc1cc(C2=NOC(c3cc(C(F)(F)F)cc(Cl)c3F)(C(F)(F)F)C2)ccc1C(=O)NC1CSC1 (single isomer, unassigned) [Example 3.51, 2-methyl-4-[(5R or S)-5-[3-chloro-2-fluoro-5-(trifluoromethyl)phenyl]-5-(trifluoromethyl)-4H-isoxazol-3-yl]-N-(thietan-3-yl)benzamide] | < 1 µg/mL
5 | Cc1cc(C2=NO[C@](c3cc(C(F)(F)F)cc(Cl)c3F)(C(F)(F)F)C2)ccc1C(=O)N[C@H]1C[C@H](C(F)(F)F)C1 (single isomer, unassigned) [Example 3.65, 2-methyl-4-[(5R or S)-5-[3-chloro-2-fluoro-5-(trifluoromethyl)phenyl]-5-(trifluoromethyl)-4H-isoxazol-3-yl]-N-[trans-3-(trifluoromethyl)cyclobutyl] benzamide] | < 1 µg/mL
6 | Cc1cc(C2=NOC(c3cc(C(F)(F)F)cc(Cl)c3F)(C(F)(F)F)C2)ccc1C(=O)NCC1(S(C)(=O)=O)CC1 (single isomer, unassigned) [Example 3.83, 2-methyl-N-[(1-methylsulfonylcyclopropyl)methyl]-4-[(5R or S)-5-[3-chloro-2-fluoro-5-(trifluoromethyl)phenyl]-5-(trifluoromethyl)-4H-isoxazol-3-yl]benzamide] | < 1 µg/mL
7 | Cc1cc(C2=NOC(c3cc(C(F)(F)F)cc(Cl)c3F)(C(F)(F)F)C2)ccc1C(=O)NC1CC(F)C1 (single isomer, unassigned) [Example 3.50, N-(3-fluorocyclobutyl)-2-methyl-4-[(5R or S)-5-[3-chloro-2-fluoro-5-(trifluoromethyl)phenyl]-5-(trifluoromethyl)-4H-isoxazol-3-yl]benzamide] | < 1 µg/mL
8 | CCN1C[C@@H](NC(=O)c2ccc(C3=NOC(c4cc(C(F)(F)F)cc(Cl)c4F)(C(F)(F)F)C3)cc2C)CC1=O (single isomer, unassigned) [Example 3.86, 4-[(5R or S)-5-[3-chloro-2-fluoro-5-(trifluoromethyl)phenyl]-5-(trifluoromethyl)-4H-isoxazol-3-yl]-N-[(3S)-1-ethyl-5-oxo-pyrrolidin-3-yl]-2-methyl-benzamide] | < 1 µg/mL
9 | Cc1cc(C2=NOC(c3cc(C(F)(F)F)cc(Cl)c3F)(C(F)(F)F)C2)ccc1C(=O)N[C@H]1CC[C@H](C#N)CC1 (single isomer, unassigned) [Example 3.92, N-(trans-4-cyanocyclohexyl)-2-methyl-4-[(5R or S)-5-[3-chloro-2-fluoro-5-(trifluoromethyl)phenyl]-5-(trifluoromethyl)-4H-isoxazol-3-yl]benzamide] | < 3 µg/mL
10 | Cc1cc(C2=NOC(c3cc(C(F)(F)F)cc(Cl)c3F)(C(F)(F)F)C2)ccc1C(=O)N[C@@H]1CCN(CC(F)(F)F)C1 (single isomer, unassigned) [Example 3.80, 4-[(5S or R)-5-[3-chloro-2-fluoro-5-(trifluoromethyl)phenyl]-5-(trifluoromethyl)-4H-isoxazol-3-yl]-2-methyl-N-[(3R)-1-(2,2,2-trifluoroethyl)pyrrolidin-3-yl]benzamide] | < 1 µg/mL
11 | Cc1cc(C2=NOC(c3cc(C(F)(F)F)cc(Cl)c3F)(C(F)(F)F)C2)ccc1C(=O)NN1CCN(CC(F)(F)F)C1=O (racemic) [Example 3.26, 2-methyl-N-[2-oxo-3-(2,2,2-trifluoroethyl)imidazolidin-1-yl]-4-[(5RS)-5-[3-chloro-2-fluoro-5-(trifluoromethyl)phenyl]-5-(trifluoromethyl)-4H-isoxazol-3-yl]benzamide] | < 3 µg/mL
12 | Cc1cc(C2=NOC(c3cc(C(F)(F)F)cc(Cl)c3F)(C(F)(F)F)C2)ccc1C(=O)N[C@@H]1CCN(CC#N)C1 (single isomer, unassigned) [Example 3.76, 4-[(5S or R)-5-[3-chloro-2-fluoro-5-(trifluoromethyl)phenyl]-5-(trifluoromethyl)-4H-isoxazol-3-yl]-N-[(3R)-1-(cyanomethyl)pyrrolidin-3-yl]-2-methyl-benzamide] | < 1 µg/mL
13 | Cc1cc(C2=NOC(c3cc(C(F)(F)F)cc(Cl)c3F)(C(F)(F)F)C2)ccc1C(=O)NCC1(C#N)CC1 (single isomer, unassigned) [Example 3.77, N-[(1-cyanocyclopropyl)methyl]-2-methyl-4-[(5R or S)-5-[3-chloro-2-fluoro-5-(trifluoromethyl)phenyl]-5-(trifluoromethyl)-4H-isoxazol-3-yl]benzamide] | < 1 µg/mL
14 | Cc1cc(C2=NOC(c3cc(C(F)(F)F)cc(Cl)c3F)(C(F)(F)F)C2)ccc1C(=O)NC1CS(=O)(=O)C1 (single isomer, unassigned) [Example 3.52, 4-[(5R or S)-5-[3-chloro-2-fluoro-5-(trifluoromethyl)phenyl]-5-(trifluoromethyl)-4H-isoxazol-3-yl]-N-(1,1-dioxothietan-3-yl)-2-methyl-benzamide] | < 1 µg/mL
15 | Cc1cc(C2=NOC(c3cc(C(F)(F)F)cc(Cl)c3F)(C(F)(F)F)C2)ccc1C(=O)N[C@H]1C[C@@H](S(C)(=O)=O)C1 (single isomer, unassigned) [Example 3.49, 4-[(5R or S)-5-[3-chloro-2-fluoro-5-(trifluoromethyl)phenyl]-5-(trifluoromethyl)-4H-isoxazol-3-yl]-2-methyl-N-((cis)3-methylsulfonylcyclobutyl) benzamide] | < 1 µg/mL
16 | Cc1cc(C2=NOC(c3cc(C(F)(F)F)cc(Cl)c3F)(C(F)(F)F)C2)ccc1C(=O)N[C@H]1CN(CC(F)(F)F)C1=O (single isomer, unassigned) [Example 3.72, 4-[(5R or S)-5-[3-chloro-2-fluoro-5-(trifluoromethyl)phenyl]-5-(trifluoromethyl)-4H-isoxazol-3-yl]-2-methyl-N-[(3S)-2-oxo-1-(2,2,2-trifluoroethyl)azetidin-3-yl]benzamide] | < 3 µg/mL
17 | Cc1cc(C2=NOC(c3cc(C(F)(F)F)cc(Cl)c3F)(C(F)(F)F)C2)ccc1C(=O)N[C@H]1CNC(=O)C1 (single isomer, unassigned) [Example 3.85, 4-[(5R or S)-5-[3-chloro-2-fluoro-5-(trifluoromethyl)phenyl]-5-(trifluoromethyl)-4H-isoxazol-3-yl]-2-methyl-N-[(3R)-5-oxopyrrolidin-3-yl]benzamide] | < 1 µg/mL
18 | Cc1cc(C2=NOC(c3cc(C(F)(F)F)cc(Cl)c3F)(C(F)(F)F)C2)ccc1C(=O)NC1C[S+]([O-])C1 (single isomer, unassigned) [Example 3.55] | < 1 µg/mL
19 | Cc1cc(C2=NOC(c3cc(C(F)(F)F)cc(Cl)c3F)(C(F)(F)F)C2)ccc1C(=O)NN1CCNC1=O (racemic) [Example 3.25, 2-methyl-N-(2-oxoimidazolidin-1-yl)-4-[(5RS)-5-[3-chloro-2-fluoro-5-(trifluoromethyl)phenyl]-5-(trifluoromethyl)-4H-isoxazol-3-yl]benzamide] | < 3 µg/mL
20 | Cc1cc(C2=NOC(c3cc(C(F)(F)F)cc(Cl)c3F)(C(F)(F)F)C2)ccc1C(=O)N[C@@H]1CNC(=O)C1 (single isomer, unassigned) [Example 3.84, 4-[(5R or S)-5-[3-chloro-2-fluoro-5-(trifluoromethyl)phenyl]-5-(trifluoromethyl)-4H-isoxazol-3-yl]-2-methyl-N-[(3S)-5-oxopyrrolidin-3-yl]benzamide] | < 1 µg/mL
21 | Cc1cc(C2=NOC(c3cc(C(F)(F)F)cc(Cl)c3F)(C(F)(F)F)C2)ccc1C(=O)NC1CC2(COC2)C1 (single isomer, unassigned) [Example 3.62, 2-methyl-N-(2-oxaspiro[3.3]heptan-6-yl)-4-[(5R or S)-5-[3-chloro-2-fluoro-5-(trifluoromethyl)phenyl]-5-(trifluoromethyl)-4H-isoxazol-3-yl]benzamide] | < 1 µg/mL
22 | Cc1cc(C2=NOC(c3cc(C(F)(F)F)cc(Cl)c3F)(C(F)(F)F)C2)ccc1C(=O)NC1CCN(C2CC2)C1=O (racemic) [Example 3.15, 2-methyl-4-[(5RS)-5-[3-chloro-2-fluoro-5-(trifluoromethyl)phenyl]-5-(trifluoromethyl)-4H-isoxazol-3-yl]-N-[(3RS)-1-cyclopropyl-2-oxo-pyrrolidin-3-yl]benzamide] | < 3 µg/mL
